Patent US6433167B1, “Triazolo-1,4-diazepine compounds and medicinal composition containing the same” (Nikken Chemicals Co., Ltd., priority 1997, dated 2002)

Assays:
[1] = tested on: platelet activating factor (PAF)-induced aggregation of platelet rich plasma (PRP); test: PAF antagonistic action test (PAF-induced platelet aggregation in platelet rich plasma); type: cell-based, Japanese white rabbits; settings: test compound final concentration 10^−7M; PAF final concentration 17 nM; rabbit PRP, 37° C.
Description: Japanese white rabbits (2.5 to 3.0 kg, Clean Experimental Animal Center) were used. Nine volumes of blood were taken with respect to one volume of 3.8% sodium citrate from the carotid under anesthesia by pentobarbitol. This was centrifuged at 1000 rpm and room temperature for 10 minutes. The top layer was used as the platelet rich plasma (PRP). The lower layer was further centrifuged at 3000 rpm and room temperature for 10 minutes to obtain the platelet poor plasma (PPP).
5 μl (final concentration 10^−7M) of the test compound was added to 90 μl of PRP. This was incubated at 37° C. for 3 minutes, then a platelet activating factor (PAF, final concentration 17 nM) was added to cause aggregation and the aggregation reaction was measured for 5 minutes using an aggrigometer (MC Medical, PAT-606).

[2] = molecular target: T1, TxA2 synthesis in human blood platelet microsomes (Homo sapiens, UniProt P24557); test: TxA2 synthesis inhibiting action test (TxB2 by EIA); type: biochemical; settings: test compound final concentration 10^−7M, human blood platelet microsomes 50 μg protein/ml, prostaglandin H2 substrate
T1 construct: containing human blood platelet microsomes (50 μg protein/ml); from tissue; host or cells: human blood platelet microsomes
T1 sequence (P24557 1-533): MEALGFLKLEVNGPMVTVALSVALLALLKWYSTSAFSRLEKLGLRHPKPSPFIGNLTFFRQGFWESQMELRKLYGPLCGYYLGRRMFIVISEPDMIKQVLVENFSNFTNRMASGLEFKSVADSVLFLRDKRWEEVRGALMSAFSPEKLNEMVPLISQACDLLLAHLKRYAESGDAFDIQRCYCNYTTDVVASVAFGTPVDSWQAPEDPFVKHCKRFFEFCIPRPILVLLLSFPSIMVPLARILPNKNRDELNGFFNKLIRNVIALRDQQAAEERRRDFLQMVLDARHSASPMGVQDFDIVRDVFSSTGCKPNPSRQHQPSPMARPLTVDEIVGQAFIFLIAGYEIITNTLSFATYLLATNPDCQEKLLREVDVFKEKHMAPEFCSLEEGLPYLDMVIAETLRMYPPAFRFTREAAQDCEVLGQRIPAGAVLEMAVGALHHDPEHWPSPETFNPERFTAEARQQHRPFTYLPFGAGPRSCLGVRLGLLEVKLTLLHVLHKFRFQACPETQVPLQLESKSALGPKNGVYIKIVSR
Description: 1 ml of a buffer (20 MM Tris-HCl buffer, 1 mM EDTA, pH 7.5) containing human blood platelet microsomes (50 μg protein/ml) and the test compound (final concentration 10^−7M) was agitated, then incubated at 0° C. for 30 minutes. To this was added prostaglandin H2 (100 ng/2 μl). This was incubated at 23° C. for 3 minutes to cause a reaction. Next, 1M hydrochloric acid was added to make the solution acidic and stop the reaction, then this was neutralized by 1M Tris-Base and centrifuged at 3000 rpm for 20 minutes. The amount of the TxB2 in the supernatant was measured by the EIA method (Cayman Co. kit).
The test results are shown in Table II. a Further, as controls, UK-74,505 having a PAF antagonistic action and OKY-046 having a TxA2 synthesis inhibiting action were used.

rats or mice = test: Acute toxicity test; type: in vivo; settings: administered intravenously, 10 mg/kg

Structure (SMILES)	PAF antagonistic action Rate of suppression at 10^−7 M (%) [1]	inhibition at 0.1 µM ([2]; read-out: TxA2 synthesis inhibiting action Rate of suppression at 10^−7 M (%))	TxA2 synthesis inhibiting action Rate of suppression at 10^−7 M (%) [2]	Deaths after intravenous administration (rats or mice)
CCOC(=O)CCCCON=C(c1cccnc1)c1ccccc1C(=O)N1CCc2c(sc3c2C(c2ccccc2Cl)=NC(C)c2nnc(C)n2-3)C1 (mixture of isomers) [Compound 1, 6-(2-Chlorophenyl)-3-[2-[((E/Z)-4-ethoxycarbonylbutyloxyimino)(3-pyridyl)methylene]phenylcarbonyl]-8,11-dimethyl-2,3,4,5-tetrahydro-8H-pyrido[4′,3′:4,5]thieno[3,2-f][1,2,4]triazolo[4,3-a][1,4]diazepine]	82.0%	53%		
CCOC(=O)CCCCON=C(c1ccc(CC(=O)N2CCc3c(sc4c3C(c3ccccc3Cl)=NC(C)c3nnc(C)n3-4)C2)cc1)c1cccnc1 (mixture of isomers) [Compound 4, 6-(2-Chlorophenyl)-3-[4-[((E/Z)-4-ethoxycarbonylbutyloxyimino)(3-pyridyl)methyl]phenylmethylcarbonyl]-8,11-dimethyl-2,3,4,5-tetrahydro-8H-pyrido[4′,3′:4,5]thieno[3,2-f](1,2,4]triazolo[4,3-a][1,4]diazepine]	94.6%		79.6%	no deaths were observed
CCOC(=O)CCCCON=C(c1cccnc1)c1cccc(CCCC(=O)N2CCc3c(sc4c3C(c3ccccc3Cl)=NC(C)c3nnc(C)n3-4)C2)c1 (mixture of isomers) [Compound 5, 6-(2-Chlorophenyl)-3-[3-[3-[((E/Z)-4-ethoxycarbonylbutyloxyimino)(3-pyridyl)methyl]phenyl]propylcarbonyl]-8,11-dimethyl-2,3,4,5-tetrahydro-8H-pyrido[4′,3′:4,5]thieno[3,2-f][1,2,4]triazolo[4,3-a][1,4]diazepine]	95.5%		40.3%	
CCOC(=O)CCCCON=C(c1ccc(COCC(=O)N2CCc3c(sc4c3C(c3ccccc3Cl)=NC(C)c3nnc(C)n3-4)C2)cc1)c1cccnc1 (mixture of isomers) [Compound 6, 6-(2-Chlorophenyl)-3-[4-[((E/Z)-4-ethoxycarbonylbutyloxyimino)(3-pyridyl)methyl]phenylmethyloxymethylcarbonyl]-8,11-dimethyl-2,3,4,5-tetrahydro-8H-pyrido[4′,3′:4,5]thieno[3,2-f][1,2,4]triazolo[4,3-a][1,4]diazepine]	79.8%		75.6%	no deaths were observed
CCOC(=O)CCCCON=C(c1cccnc1)c1cccc(CN2CCc3c(sc4c3C(c3ccccc3Cl)=NC(C)c3nnc(C)n3-4)C2)c1 (mixture of isomers) [Compound 7, 6-(2-Chlorophenyl)-3-[3-[((E/Z)-4-ethoxycarbonylbutyloxyimino)(3-pyridyl)methyl]phenylmethyl]-8,11-dimethyl-2,3,4,5-tetrahydro-8H-pyrido[4′,3′:4,5]thieno[3,2-f][1,2,4]triazolo[4,3-a][1,4]diazepine]	94.0%		58.2%	
Cc1nnc2n1-c1sc3c(c1C(c1ccccc1Cl)=NC2C)CCN(Cc1cccc(C(=NOCCCCC(=O)O)c2cccnc2)c1)C3 (mixture of isomers) [Compound 8, 6-(2-Chlorophenyl)-3-[3-[((E/Z)-4-carboxydibutyloxyimino)(3-pyridyl)methyl]phenylmethyl]-8,11-dimethyl-2,3,4,5-tetrahydro-8H-pyrido[4′,3′:4,5]thieno[3,2-f][1,2,4]triazolo[4,3-a][1,4]diazepine]	52.0%		81.7%	
CCOC(=O)CCCCC=C(c1ccc(CN2CCc3c(sc4c3C(c3ccccc3Cl)=NC(C)c3nnc(C)n3-4)C2)cc1)c1cccnc1 (mixture of isomers) [Compound 11, 6-(2-Chlorophenyl)-3-[4-[((E/Z)-5-ethoxycarbonylpentylidene)(3-pyridyl)methyl]phenylmethyl]-8,11-dimethyl-2,3,4,5-tetrahydro-8H-pyrido[4′,3′:4,5]thieno[3,2-f][1,2,4]triazolo[4,3-a][1,4]diazepine]	94.2%		83.7%	
O=C(O)/C=C/c1ccc(Cn2ccnc2)cc1 [OKY-046, reference compound]	0%		84.5%	
CCOC(=O)C1=C(c2ccc(-n3c(C)nc4cnccc43)cc2)NC(C)=C(C(=O)Nc2ccccn2)C1c1ccccc1Cl (centres unmarked) [UK-74,505, reference compound]	89.0%		0%	
